Results taken from paper PMC8360000 (Clinical Pharmacology and Therapeutics, 2021).
Several values for one entry are separate records, joined by “and”; a condition that tells them apart may be missing. Equal entries are not always repeated.

Experiments:
P‐gp [1] = assay: IVIVE of intrinsic CL and Kp,uu,brain using REF and BMEC protein content; design: species or system human; conditions: for Kp,uu,brain,pred(method 2): 5C model
P-gp = assay: IVIVE of Kp,uu,brain from in vitro ER using REF; design: species or system human; conditions: human, brain (unbound, Kp,uu)
P‐gp [2] = assay: IVIVE of Kp,uu,brain from in vitro ER using REF; design: species or system human; conditions: for Kp,uu,brain,pred(method 1) Mean ± SD / Kp,uu,brain,pred(method 1) Individual: predicted from in vitro ER and REF; for Kp,uu,brain,pred(method 1) Mean ± SD: four experiments; for Kp,uu,brain,pred(method 1) Individual: individual experiments 1-4
P‐gp [3] = conditions: humans, cyclosporine as inhibitor; cited from earlier work

| Compound | Kp,uu,brain,pred(method 2) (P‐gp [1]; mean ± standard deviation) | Kp uu (P-gp) | Kp,uu,brain,pred(method 1) Mean ± SD (P‐gp [2]) | Kp,uu,brain,pred(method 1) Individual (P‐gp [2]) | K1 (cerebral uptake CL), impact of P‐gp inhibition (P‐gp [3]) | IVIV Extrapolated CLi (P‐gp [1]; mean ± standard deviation, scaled with BMEC protein content) | P/O (predicted/observed value) (P‐gp [1]; method 2) | P/O (predicted/observed Kp,uu,brain ratio) (P‐gp [2]; method 1) |
| --- | --- | --- | --- | --- | --- | --- | --- | --- |
| CCN(CC)CCNC(=O)c1cc(Cl)c(N)cc1OC [Metoclopramide, metoclopramide] | 0.61 ± 0.10 | 1.3 | 0.74 ± 0.08 | 0.74 and 0.76 and 0.63 and 0.81 | not impacted | – | – | – |
| CNC(=O)C(CCN1CCC(O)(c2ccc(Cl)cc2)CC1)(c1ccccc1)c1ccccc1 [N‐desmethyl loperamide] | 0.020 ± 0.014 | – | 0.043 ± 0.018 | 0.058 and 0.035 and 0.056 and 0.021 | – | 287 ± 88 mL/min | 0.44 | 0.92 |
